The results in this text go back to EP3626820A1, “ANTICANCER COMPOSITIONS CONTAINING MIRNA MIMICS AND USES THEREOF” (Fundación Imdea Nanociencia, priority 2018, dated 2020).

As a reminder, the IC50 is the point on the concentration scale where inhibition reaches its midpoint.

SMILES strings stand for the structures.

The subject of test [1] is Mel 202 cells. Put plainly: alamarBlue cell viability assay. The class given is cell-based. The note with it: Mel202, SN38 incubated 24 h, alamarBlue after additional 24 h. As for the experimental part:
Mel 202 cells were cultured in RPMI medium with 10 % fetal bovine serum (FBS), 1 % […]-Penicillin and 1 % L-Glutamine at 37 °C in an incubator. All the procedures were performed inside a laminar flow hood Telstar CV-30/70. Cells were grown in 24 wells plates (30000 cells).
stock solution of Resazurin sodium salt (1 mg/ml) in PBS was diluted 1 % (v/v) in complete RPMI. After incubation 3 h with the cells, the fluorescence was measured in a plate reader Synergy H4 Hybrid reader (BioTEK). Excitation (Ex) 550 nm; Emission (Em) 590 nm.
50 µl OptiMem was mixed with oligonucleotides (14, 15, 16, 17) or DNA mix 1. Then, it was mixed with 1 µl Lipofectamine 2000 in 50 µl optiMEM. The final mixture was incubated for 20 min and then 100 µl was added to cells. The final concentration of 14, 15, 16, 17 or DNA mix 1 was 140 nM. After 24 h the cells were washed 3 times with saline phosphate buffer (PBS) and complete medium was added.
SN38 stock solution was prepared at 100 µM in DMSO. Then different concentrations of SN38 (100 nM, 50 nM, 25 nM) were prepared in complete medium. It was incubated 24 h with the cells, then washed with PBS. After additional 24 h, the alamarBlue assay was carried out. […]
A volume of 100 µ L functionalized AuNPs were added in optiMEM (500 µ L total volume). The cells were incubated for 24 h, washed with PBS and the viability assessed.
(In general: Resazurin is reduced to fluorescent resorufin, in cell work by metabolically active cells.)

Test [2] has as its system Mel 202 cells. Kind of test: Cell cycle analysis by flow cytometry (propidium iodide). It counts as cell-based. The note with it: Mel 202 cells harvested after treatment; SN38 25 nM; free (not on nanoparticles). As for the experimental part: The samples were trypsinized (BioWest) and fixed with paraformaldehyde 1 % (v/v). The samples were stained for 3 h with 10 µ g/sample RNAsa A from Thermo Scientific and 20 µ g/sample propidium iodide from Sigma. The cell cycle analysis was performed in a Beckman coulter Cytomics 500 Flow cytometer and acquired data were analyzed with the Multicycle software.
These experiments were performed in cytometry service of Biotechnology National Centre of Spain.
On the technique in general: Flow cytometry measures light scatter and fluorescence of single cells or particles in a stream.

Regarding `CCc1c2c(nc3ccc(O)cc13)-c1cc3c(c(=O)n1C2)COC(=O)[C@]3(O)CC` [SN38, 7-ethyl-10-hidroxycamptothecin], the half-inhibitory concentration (IC50) in the test on Mel 202 cells [1] came out at 100 nM. The “effect on the cell cycle” value in the test with Mel 202 cells [2] was “significantly increases G2/M”.
